Where “and” joins values, the source holds several entries; their conditions need not be identical. Identical values can stand only once. Counter-ions that a name gives are not always drawn.
What was measured:
[1] = molecular target: T1, p38alpha (Homo sapiens, UniProt Q16539); experiment: P38alpha enzyme inhibition assay (Alphascreen kinase activity assay); assay type: biochemical; details: IC50 classes; 2 hours preincubation at 25° C., 250 μM ATP; read-out: p38α inhibition
T1 construct: purchased Invitrogen PV3304
Outline: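 p38alpha with 0.3 μg/ml ATF-2 fusion protein in HEPES pH 7.5 buffer (10 mM MgCl2, 2 mM DTT, 1% DMSO); compounds preincubated 2 h at 25° C, then 250 μM ATP added for 1 h at 25° C. Phospho-ATF2 detected by AlphaScreen luminescence with anti-phospho-ATF2 antibody; IC50 from concentration-response curves.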

[2] = test system: Peripheral Blood Mononuclear Cells (PBMCs); experiment: LPS-stimulated PBMC TNFα release assay; assay type: cell-based; details: IC50 classes; human PBMC, LPS 10 ng/ml, 18 h; read-out: LPS-stimulated PBMC TNFα release inhibition
Outline: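 Human PBMCs from healthy donors, adhered 3 h in serum-free RPMI, received compound for 1 h in 1% FBS medium before 10 ng/ml LPS for 18 h. Supernatant TNFα was measured by MSD; IC50 from percentage inhibition of control release, at least three separate experiments.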

[3] = test system: BEAS-2B cells; experiment: TNFα-stimulated BEAS-2B IL-8 release assay; assay type: cell-based; details: Homo sapiens, IC50 classes, TNF-α 10 ng/ml, 18 h, read-out: TNFα-stimulated BEAS-2B IL-8 release inhibition
Method: TNFα-Stimulated BEAS-2B IL-8 Release Assay
Human bronchial epithelial cell line BEAS-2B was purchased from Sigma (St. Louis, Mo.). BEAS-2B cells were cultured in Bronchial Epithelial cell Growth Medium (BEGM), prepared by supplementing Bronchial Epithelial Basal Medium with SingleQuotes™ (Lonza, Switzerland), which contains retinoic acid, epidermal growth factor, epinephrine, transferrin, triiodothyronin, insulin, hydrocortisone, antimicrobial agents, and bovine pituitary extract. In addition, BEGM medium was supplemented with 2 mM glutamine, 100 U penicillin and 100 μg/ml streptomycin (Life Technologies), in an atmosphere of 95% air and 5% CO2 at 37° C.
BEAS-2B were seeded in 48-well plates at the density of 3×10^4 cells per well, grown to approximately 80-90% confluence. Cells were pre-incubated with p38 inhibitors for 1 hour and then stimulated with TNF-α (10 ng/ml) for 18 h at 37° C. with 5% CO2. Subsequently, supernatants were collected and used for measuring IL-8 levels using a paired antibody quantitative ELISA kit purchased from Life Technologies (detection limit: […]). All the treatments were performed at least in quadruplicate.
A concentration-response curve to each test compound was performed and the effect of compound in each experiment was expressed as a percentage inhibition of the control IL-8 release. Compound potency (IC50) was calculated by the analysis of the sigmoidal dose-response curve (variable slope) elaborated by Graph Pad PRISM4 program.

T1 sequence (Q16539 whole entry): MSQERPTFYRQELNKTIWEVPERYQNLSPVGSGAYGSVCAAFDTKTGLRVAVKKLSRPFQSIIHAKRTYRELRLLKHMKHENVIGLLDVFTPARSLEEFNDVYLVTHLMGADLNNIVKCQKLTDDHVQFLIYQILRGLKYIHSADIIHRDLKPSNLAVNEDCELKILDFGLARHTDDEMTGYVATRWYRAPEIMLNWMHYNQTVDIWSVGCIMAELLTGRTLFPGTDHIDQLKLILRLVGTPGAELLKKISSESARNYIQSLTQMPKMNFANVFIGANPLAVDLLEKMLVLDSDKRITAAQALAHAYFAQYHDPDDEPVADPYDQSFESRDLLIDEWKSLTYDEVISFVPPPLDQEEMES

| IC50 [1] | Compound | IC50 [2] | IC50 [3] |
| --- | --- | --- | --- |
| < 1 nM | C[C@H]1CCCCN1c1nnc2ccc(O[C@@H]3CC[C@H](NC(=O)Nc4cc(CN(CCO)CCO)cc(C(C)(C)C)c4)c4ccccc43)cn12 [Example 76, 1-(3-{[Bis-(2-hydroxy-ethyl)-amino]-methyl}-5-tert-butyl-phenyl)-3-{(1S,4R)-4-[3-((S)-2-methyl-piperidin-1-yl)-[1,2,4]triazolo[4,3-a]pyridin-6-yloxy]-1,2,3,4-tetrahydro-naphthalen-1-yl}-urea] | 1 to 5 nM | > 1 nM |
| 1 to 10 nM | CN1CC[C@H]1c1nnc2ccc(O[C@@H]3CC[C@H](NC(=O)Nc4cc(NS(C)(=O)=O)cc(C(C)(C)C)c4)c4ccccc43)cn12 [Example 63, N-[3-tert-Butyl-5-(3-{(1S,4R)-4-[3-((S)-1-methyl-azetidin-2-yl)-[1,2,4]triazolo[4,3-a]pyridin-6-yloxy]-1,2,3,4-tetrahydro-naphthalen-1-yl}-ureido)-phenyl]-methanesulfonamide] | > 5 nM | > 1 nM |
| < 1 nM | CN1CCC[C@@]1(C)c1nnc2ccc(O[C@@H]3CC[C@H](NC(=O)Nc4cc(COCCN5CCCCC5)cc(C(C)(C)C)c4)c4ccccc43)cn12 [Example 71, 1-[3-tert-Butyl-5-(2-piperidin-1-yl-ethoxymethyl)-phenyl]-3-{(1S,4R)-4-[3-((S)-1,2-dimethyl-pyrrolidin-2-yl)-[1,2,4]triazolo[4,3-a]pyridin-6-yloxy]-1,2,3,4-tetrahydro-naphthalen-1-yl}-urea] | 1 to 5 nM | 0.3 to 1 nM |
| < 1 nM | CN1CCCC[C@H]1c1nnc2ccc(O[C@@H]3CC[C@H](NC(=O)Nc4cc(NS(C)(=O)=O)cc(C(C)(C)C)c4)c4ccccc43)cn12 [Example 61, N-[3-tert-Butyl-5-(3-{(1S,4R)-4-[3-((S)-1-methyl-piperidin-2-yl)-[1,2,4]triazolo[4,3-a]pyridin-6-yloxy]-1,2,3,4-tetrahydro-naphthalen-1-yl}-ureido)-phenyl]-methanesulfonamide] | 1 to 5 nM | > 1 nM |
| < 1 nM | CN1CCC[C@@]1(C)c1nnc2ccc(O[C@@H]3CC[C@H](NC(=O)Nc4cc(C(=O)NCCO)cc(C(C)(C)C)c4)c4ccccc43)cn12 [Example 51, 3-tert-Butyl-5-(3-{(1S,4R)-4-[3-((S)-1,2-dimethyl-pyrrolidin-2-yl)-[1,2,4]triazolo[4,3-a]pyridin-6-yloxy]-1,2,3,4-tetrahydro-naphthalen-1-yl}-ureido)-N-(2-hydroxy-ethyl)-benzamide] | < 1 nM | 0.3 to 1 nM |
| < 1 nM | CNC(=O)c1cc(NC(=O)N[C@H]2CC[C@@H](Oc3ccc4nnc([C@]5(C)CCCN5C)n4c3)c3ccccc32)cc(C(C)(C)C)c1 [Example 55, 3-tert-Butyl-5-(3-{(1S,4R)-4-[3-((S)-1,2-dimethyl-pyrrolidin-2-yl)-[1,2,4]triazolo[4,3-a]pyridin-6-yloxy]-1,2,3,4-tetrahydro-naphthalen-1-yl}-ureido)-N-methyl-benzamide] | < 1 nM | < 0.3 nM |

The next lines start with the molecule.

| Compound | IC50 [1] | IC50 [2] | IC50 [3] |
| --- | --- | --- | --- |
| COc1c(NC(=O)N[C@H]2CC[C@@H](Oc3ccc4nnc(C(C)(C)N(C)C)n4c3)c3ccccc32)cc(C(C)(C)C)cc1NS(=O)(=O)C1CC1 [Example 14, Cyclopropanesulfonic acid [5-tert-butyl-3-(3-{(1S,4R)-4-[3(1-dimethylamino-1-methyl-ethyl)-[1,2,4]triazolo[4,3-a]pyridin-6-yloxy]-1,2,3,4-tetrahydro-naphthalen-1-yl}-ureido)-2-methoxy-phenyl]-amide partial formate salt] | 1 to 10 nM | < 1 nM | < 0.3 nM |
| COc1c(NC(=O)N[C@H]2CC[C@@H](Oc3ccc4nnc(C(C)(C)N(C)C)n4c3)c3ccccc32)cc(C(C)(C)C)cc1NS(=O)(=O)CC(C)C [Example 16, 2-Methyl-propane-1-sulfonic acid [5-tert-butyl-3-(3-{(1S,4R)-4-[3-(1-dimethylamino-1-methyl-ethyl)-[1,2,4]triazolo[4,3-a]pyridin-6-yloxy]-1,2,3,4-tetrahydro-naphthalen-1-yl}-ureido)-2-methoxy-phenyl]-amide hydrochloride salt] | 1 to 10 nM and < 1 nM | 1 to 5 nM | 0.3 to 1 nM |
| COc1c(CO)cc(C(C)(C)C)cc1NC(=O)N[C@H]1CC[C@@H](Oc2ccc3nnc([C@@H]4CCCN4C(C)C)n3c2)c2ccccc21 [Example 6, 1-(5-tert-Butyl-3-hydroxymethyl-2-methoxy-phenyl)-3-{(1S,4R)-4-[3-((S)-1-isopropyl-pyrrolidin-2-yl)-[1,2,4]triazolo[4,3-a]pyridin-6-yloxy]-1,2,3,4-tetrahydro-naphthalen-1-yl}-urea] | 1 to 10 nM | < 1 nM | < 0.3 nM |
| CN1CCC[C@@]1(C)c1nnc2ccc(O[C@@H]3CC[C@H](NC(=O)Nc4cc(N)cc(C(C)(C)C)c4)c4ccccc43)cn12 [Example 35] | < 1 nM | 1 to 5 nM | < 0.3 nM |
| COc1c(CO)cc(C(C)(C)C)cc1NC(=O)N[C@H]1CC[C@@H](Oc2ccc3nnc([C@@H]4CCCN4C)n3c2)c2ccccc21 [Example 2, 1-(5-tert-Butyl-3-hydroxymethyl-2-methoxy-phenyl)-3-{(1S,4R)-4-[-3-((S)-1-methyl-pyrrolidin-2-yl)-[1,2,4]triazolo[4,3-a]pyridin-6-yloxy]-1,2,3,4-tetrahydro-naphthalen-1-yl}-urea] | < 1 nM | < 1 nM | < 0.3 nM |
| CC(C)(C)c1cc(NC(=O)N[C@H]2CC[C@@H](Oc3ccc4nnc([C@@H]5CCCN5CCO)n4c3)c3ccccc32)cc(NS(C)(=O)=O)c1 [Example 31, N-{3-tert-Butyl-5-[3-((1S,4R)-4-{3-[(S)-1-(2-hydroxy-ethyl)-pyrrolidin-2-yl]-[1,2,4]triazolo[4,3-a]pyridin-6-yloxy}-1,2,3,4-tetrahydro-naphthalen-1-yl)-ureido]-phenyl}-methanesulfonamide] | < 1 nM | > 5 nM | > 1 nM |
| COCCS(=O)(=O)Nc1cc(C(C)(C)C)cc(NC(=O)N[C@H]2CC[C@@H](Oc3ccc4nnc(C(C)(C)N(C)C)n4c3)c3ccccc32)c1OC [Example 15, 2-Methoxy-ethanesulfonic acid [5-tert-butyl-3-(3-{(1S,4R)-4-[3(1-dimethylamino-1-methyl-ethyl)-[1,2,4]triazolo[4,3-a]pyridin-6-yloxy]-1,2,3,4-tetrahydro-naphthalen-1-yl}-ureido)-2-methoxy-phenyl]-amide hydrochloride salt] | 1 to 10 nM | < 1 nM | < 0.3 nM |
| CCS(=O)(=O)Nc1cc(C(C)(C)C)cc(NC(=O)N[C@H]2CC[C@@H](Oc3ccc4nnc(C(C)(C)N(C)C)n4c3)c3ccccc32)c1OC [Example 13, Ethanesulfonic acid [5-tert-butyl-3-(3-{(1S,4R)-4-[3(1-dimethylamino-1-methyl-ethyl)-[1,2,4]triazolo[4,3-a]pyridin-6-yloxy]-1,2,3,4-tetrahydro-naphthalen-1-yl}-ureido)-2-methoxy-phenyl]-amide hydrochloride salt] | 1 to 10 nM | < 1 nM | < 0.3 nM |

From patent publication US10100050B2 (CHIESI FARMACEUTICI S.P.A., priority 2015, dated 2018)
